According to ChEMBL document CHEMBL4393680, “Design, synthesis and biological evaluation of novel thioquinazolinone-based 2-aminobenzamide derivatives as potent histone deacetylase (HDAC) inhibitors” (Eur J Med Chem, 2019):

Experiments:
[1] = test system: A-375; test: Antiproliferative activity against human A375 cells assessed as reduction in cell growth at 2 uM incubated for 72 hrs by CCK-8 assay relative to control; type: functional; details: A-375, 72 h
[2] = test system: SMMC-7721; test: Antiproliferative activity against human SMMC7721 cells assessed as reduction in cell growth at 2 uM incubated for 72 hrs by CCK-8 assay relative to control; type: functional; details: SMMC-7721, 72 h
[3] = test system: HCT-116; test: Antiproliferative activity against human HCT116 cells assessed as reduction in cell growth at 8 uM incubated for 72 hrs by CCK-8 assay relative to control; type: functional; details: HCT-116, 72 h
[4] = test system: HCT-116; test: Antiproliferative activity against human HCT116 cells assessed as reduction in cell growth at 2 uM incubated for 72 hrs by CCK-8 assay relative to control; type: functional; details: HCT-116, 72 h
[5] = test system: HeLa; test: Antiproliferative activity against human HeLa cells assessed as reduction in cell growth at 8 uM incubated for 72 hrs by CCK-8 assay relative to control; type: functional
[6] = test system: HeLa; test: Antiproliferative activity against human HeLa cells assessed as reduction in cell growth at 2 uM incubated for 72 hrs by CCK-8 assay relative to control; type: functional
[7] = test system: SMMC-7721; test: Antiproliferative activity against human SMMC7721 cells assessed as reduction in cell growth at 8 uM incubated for 72 hrs by CCK-8 assay relative to control; type: functional; details: SMMC-7721, 72 h
[8] = test system: A-375; test: Antiproliferative activity against human A375 cells assessed as reduction in cell growth at 8 uM incubated for 72 hrs by CCK-8 assay relative to control; type: functional; details: A-375, 72 h
[9] = test system: A-375; test: Antiproliferative activity against human A375 cells assessed as reduction in cell growth incubated for 72 hrs by CCK-8 assay; type: functional, cell-based; details: A-375, 72 h
[10] = test system: HCT-116; test: Antiproliferative activity against human HCT116 cells assessed as reduction in cell growth incubated for 72 hrs by CCK-8 assay; type: functional, cell-based; details: HCT-116, 72 h
[11] = test system: A549; test: Antiproliferative activity against human A549 cells assessed as reduction in cell growth at 2 uM incubated for 72 hrs by CCK-8 assay relative to control; type: functional; details: A549, 72 h
[12] = test system: SMMC-7721; test: Antiproliferative activity against human SMMC7721 cells assessed as reduction in cell growth incubated for 72 hrs by CCK-8 assay; type: functional, cell-based; details: SMMC-7721, 72 h
[13] = test system: A549; test: Antiproliferative activity against human A549 cells assessed as reduction in cell growth at 8 uM incubated for 72 hrs by CCK-8 assay relative to control; type: functional; details: A549, 72 h
[14] = test system: HeLa; test: Antiproliferative activity against human HeLa cells assessed as reduction in cell growth incubated for 72 hrs by CCK-8 assay; type: functional, cell-based
[15] = test system: A549; test: Antiproliferative activity against human A549 cells assessed as reduction in cell growth incubated for 72 hrs by CCK-8 assay; type: functional, cell-based; details: A549, 72 h

Compound: COc1ccc2c(=O)n(-c3ccccc3C)c(SCc3ccc(C(=O)Nc4ccccc4N)cc3)nc2c1
- inhibition at 2 µM [1]: 39.1%
- inhibition at 2 µM [2]: 58.2%
- inhibition at 8 µM [3]: 88.2%
- inhibition at 2 µM [4]: 73.5%
- inhibition at 8 µM [5]: 33.1%
- inhibition at 2 µM [6]: 23.6%
- inhibition at 8 µM [7]: 78.1%
- inhibition at 8 µM [8]: 83.6%
- IC50 [9]: 2300 nM
- IC50 [10]: 1290 nM
- inhibition at 2 µM [11]: 36.3%
- IC50 [12]: 5370 nM
- inhibition at 8 µM [13]: 54.5%

Compound: Cn1c(SCc2ccc(C(=O)Nc3ccccc3N)cc2)nc2cc(F)ccc2c1=O
- inhibition at 2 µM [1]: 30%
- inhibition at 2 µM [2]: 52.5%
- IC50 [14]: 4810 nM
- inhibition at 8 µM [3]: 79.7%
- inhibition at 2 µM [4]: 51.7%
- inhibition at 8 µM [5]: 84.6%
- inhibition at 2 µM [6]: 39.7%
- inhibition at 8 µM [7]: 75.1%
- inhibition at 8 µM [8]: 64.3%
- IC50 [9]: 3280 nM
- IC50 [10]: 2710 nM
- inhibition at 2 µM [11]: 21.3%
- IC50 [12]: 900 nM
- inhibition at 8 µM [13]: 45%

Compound: COc1ccc2c(=O)n(CCCC[S+](C)[O-])c(SCc3ccc(/C=C/C(=O)Nc4ccccc4N)cc3)nc2c1 (stereo unspecified)
- inhibition at 2 µM [1]: 13.2%
- inhibition at 2 µM [2]: 3.1%
- IC50 [15]: 20000 nM
- inhibition at 8 µM [3]: 8.6%
- inhibition at 2 µM [4]: 4.5%
- inhibition at 8 µM [5]: 41%
- inhibition at 2 µM [6]: 1.1%
- inhibition at 8 µM [7]: 9.9%
- inhibition at 8 µM [8]: 18.8%
- inhibition at 2 µM [11]: 53.8%
- inhibition at 8 µM [13]: 62.7%

Compound: Cc1ccc2c(=O)n(C)c(SCc3ccc(C(=O)Nc4ccccc4N)cc3)nc2c1
- inhibition at 2 µM [1]: 52.9%
- inhibition at 2 µM [2]: 41.7%
- IC50 [14]: 3120 nM
- inhibition at 8 µM [3]: 74.9%
- inhibition at 2 µM [4]: 59.8%
- inhibition at 8 µM [5]: 84.3%
- inhibition at 2 µM [6]: 59.8%
- inhibition at 8 µM [7]: 78.9%
- inhibition at 8 µM [8]: 88.2%
- IC50 [9]: 1190 nM
- IC50 [10]: 2470 nM
- inhibition at 2 µM [11]: 23.3%
- IC50 [12]: 3620 nM
- inhibition at 8 µM [13]: 52.7%

Compound: Cc1ccc2nc(SCc3ccc(C(=O)Nc4ccccc4N)cc3)n(C)c(=O)c2c1
- inhibition at 2 µM [1]: 44.6%
- inhibition at 2 µM [2]: 65.6%
- IC50 [14]: 950 nM
- inhibition at 8 µM [3]: 79.3%
- inhibition at 2 µM [4]: 49.2%
- inhibition at 8 µM [5]: 85.5%
- inhibition at 2 µM [6]: 63%
- inhibition at 8 µM [7]: 75.7%
- inhibition at 8 µM [8]: 73.6%
- IC50 [9]: 2570 nM
- IC50 [10]: 2010 nM
- inhibition at 2 µM [11]: 18.2%
- IC50 [12]: 1670 nM
- inhibition at 8 µM [13]: 33.9%
